Source: patent US4673674A, “Diazepinoindoles useful for treating depression, schizophrenia, social withdrawal or anxiety and pharmaceutical compositions containing them” (Sandoz Pharmaceuticals Corp., priority 1984, dated 1987)
pIC50: −log10 of the molar value. Read-outs that look alike come from different tables or passages of the source. Blank lines part the entries; values can stand above or below the compound they belong to.

What was measured:
[1] = target: T1, 5-HT2 receptors in the rat frontal cortex (Rattus norvegicus, UniProt P14842); test: inhibition of specific 3H-spiperone binding to 5-HT2 receptors in rat frontal cortex; details: rat frontal cortex membranes, 1 nM 3H-spiperone, 1 h at 37° C., pH 7.7
T1 construct: Fresh frontal cortex tissue from rat brain is homogenized; from tissue; host or cells: rat frontal cortex membranes
T1 sequence (P14842 whole entry): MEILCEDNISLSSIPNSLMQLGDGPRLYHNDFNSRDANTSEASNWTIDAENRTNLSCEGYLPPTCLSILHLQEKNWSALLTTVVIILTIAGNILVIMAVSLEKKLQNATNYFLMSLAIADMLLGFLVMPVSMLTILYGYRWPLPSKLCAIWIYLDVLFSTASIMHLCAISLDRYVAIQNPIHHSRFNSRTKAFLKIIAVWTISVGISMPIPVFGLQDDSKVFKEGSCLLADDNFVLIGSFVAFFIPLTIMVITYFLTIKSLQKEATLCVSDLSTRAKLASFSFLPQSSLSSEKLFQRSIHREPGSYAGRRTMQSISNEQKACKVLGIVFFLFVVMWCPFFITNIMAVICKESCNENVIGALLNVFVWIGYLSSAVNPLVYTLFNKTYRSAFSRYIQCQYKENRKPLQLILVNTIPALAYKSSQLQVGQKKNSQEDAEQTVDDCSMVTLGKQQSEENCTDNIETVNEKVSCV
Procedure: This test has been carried out as follows:
Fresh frontal cortex tissue from rat brain is homogenized in a 20 fold volume of Tris-HCl buffer (50 mM, pH 7.7, containing 4 mM CaCl2, 10 μM pargyline, and 0.1% ascorbic acid), and centrifuged. The pellets are resuspended in a 25 fold volume of the same buffer, incubated for 15 min at 37° C., and recentrifuged. The pellets are frozen at -20° C. and resuspended in a 360 fold volume of the same buffer as above before use for the binding experiment. The composition of the assay mixtures (total volume =2 ml) is as follows: 50 mM Tris-HCl pH 7,7, 4 mM CaCl2, 10 μM pargyline, 0.1% ascorbic acid, membranes corresponding to 5 mg of original tissue weight, and 1 nM ^3 H-spiperone. The assays for the determination of nonspecific binding additionally contain cinanserin in a concentration of 1 μM. […] After incubation for 1 hour at 37° C., the assay mixtures are rapidly filtered through Whatman GF/B filters and washed twice with 5 ml of ice cold incubation buffer.

locomotion in mice = test: inhibition of locomotion in mice (neuroleptic activity); format: in vivo, mice (male, OF-1); details: Mus musculus, po, read-out: EDmin (inhibition of locomotion)
Procedure: In this test groups of 3 male mice (18-24 g, OF-1, Sandoz Basle) received 3.2, 10, 32, 100 and 320 mg p.o. of the test drug.

[2] = target: T2, 3H-spiperone binding sites in the brain (calf brain striatal tissue) (Bos taurus, UniProt P20288); test: inhibition of specific 3H-spiperone binding in calf brain striatal tissue; details: calf brain striatal membranes, 0.1 nM 3H-spiperone, 5×10^-7 M cinanserin, 40 minutes at room temperature
T2 construct: fresh calf brain striatal tissue was homogenized; from tissue; host or cells: calf brain striatal membranes
T2 sequence (P20288 whole entry): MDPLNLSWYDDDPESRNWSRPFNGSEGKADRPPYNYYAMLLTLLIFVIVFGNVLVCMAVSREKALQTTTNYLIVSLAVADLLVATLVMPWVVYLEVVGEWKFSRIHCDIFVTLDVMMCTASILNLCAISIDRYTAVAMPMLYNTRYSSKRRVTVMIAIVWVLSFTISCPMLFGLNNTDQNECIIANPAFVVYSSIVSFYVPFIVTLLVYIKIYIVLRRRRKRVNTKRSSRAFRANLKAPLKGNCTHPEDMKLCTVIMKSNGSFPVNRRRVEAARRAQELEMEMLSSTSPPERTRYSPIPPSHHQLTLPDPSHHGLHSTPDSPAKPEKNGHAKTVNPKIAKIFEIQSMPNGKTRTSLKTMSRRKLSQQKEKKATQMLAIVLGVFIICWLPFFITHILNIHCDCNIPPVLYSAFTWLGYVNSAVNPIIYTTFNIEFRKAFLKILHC

paradoxical sleep (PS) = test: reduction of paradoxical sleep (PS) in the 48 h sleep EEG in rats; format: in vivo; details: 3.2-32 mg/kg p.o.
Text: Kleinlogel "EEG in Drug Research" ed. by Hermann, Gustav Fischer Verlag, Stuttgart, N.Y., 75-88 (1982)].

SMILES: CN1CCc2c(-c3ccccc3)c3ccccc3n2CC1 [Example 1, 2,3,4,5-Tetrahydro-3-methyl-11-phenyl-1H-[1,4]diazepino[1,7-a]indole]
pIC50 [1]: 8.00 to 9.00

SMILES: c1ccc(-c2c3n(c4ccccc24)CCNCC3)cc1 [Example 2, 2,3,4,5,-Tetrahydro-11-phenyl-1H-[1,4]diazepino[1,7-a]indole]
pIC50 [1]: 8.00 to 9.00

SMILES: C=CCN1CCc2c(-c3ccccc3)c3ccccc3n2CC1 [Example 3, 3-Allyl-2,3,4,5-tetrahydro-11-phenyl-1H-[1,4]diazepino-[1,7-a]indole]
pIC50 [1]: 8.00 to 9.00

SMILES: c1ccc(-c2c3n(c4ccccc24)CCN(CC2CC2)CC3)cc1 [Example 4, 3-Cyclopropylmethyl-2,3,4,5-tetrahydro-11-phenyl-1H-[1,4]diazepino[1,7-a]indole]
pIC50 [1]: 8.00 to 9.00

pIC50 [2]: 6.86
SMILES: CN1CCc2c(-c3ccc(Cl)cc3)c3ccccc3n2CC1 [Example 5j]
minimal effective dose (locomotion in mice; male mice, 1 hour after administration): 3.2 mg/kg

SMILES: CN(C)CCC=C1c2ccccc2CCc2ccccc21 [amitriptyline, reference compound]
reduction of paradoxical sleep (PS) (paradoxical sleep (PS)): reduce further the paradoxical sleep (PS) without rebound
pIC50 [1]: 7.82

SMILES: CSc1ccc2c(c1)N(CCC1CCCCN1C)c1ccccc1S2 (stereo not drawn) [thioridazine, reference compound]
minimal effective dose (locomotion in mice; 1 h): 10 to 32 mg/kg
